This is an account of results in BindingDB's records for doi:10.1016/s0960-894x(98)00065-1 (University of Arizona, 1999).

One may read the Ki as the equilibrium dissociation constant of an inhibitor or competing ligand from its target.

Each structure is given as a SMILES string.

This experiment is described as follows: Compound was tested for binding affinity towards Opioid receptor delta 1 in guinea pig brain homogenates using [3H][p-Cl-Phe]-DPDPE as radioligand.
Regarding `C[C@H](c1ccccc1)[C@H](NC(=O)CNC(=O)[C@@H](C)NC(=O)[C@@H](N)Cc1ccc(O)cc1)C(=O)NNC(=O)[C@@H](NC(=O)CNC(=O)[C@@H](C)NC(=O)[C@@H](N)Cc1ccc(O)cc1)[C@H](C)c1ccccc1` [2-Amino-N-((S)-1-{[((R)-1-{N'-[(R)-2-(2-{(S)-2-[2-amino-3-(4-hydroxy-phenyl)-propionylamino]-propionylamino}-acetylamino)-3-phenyl-butyryl]-hydrazinocarbonyl}-2-phenyl-propylcarbamoyl)-methyl]-carbamoyl}-ethyl)-3-(4-hydroxy-phenyl)-propionamide], the Ki is 110 nM.
Under `C[C@@H](NC(=O)[C@@H](N)Cc1ccc(O)cc1)C(=O)NCC(=O)N[C@@H](Cc1c(F)c(F)c(F)c(F)c1F)C(=O)NNC(=O)[C@H](Cc1c(F)c(F)c(F)c(F)c1F)NC(=O)CNC(=O)[C@@H](C)NC(=O)[C@@H](N)Cc1ccc(O)cc1` [Biphalin Analogue] stands 7.8 nM; under `C[C@@H](NC(=O)[C@@H](N)Cc1ccc(O)cc1)C(=O)NCC(=O)N[C@@H](Cc1ccc2ccccc2c1)C(=O)NNC(=O)[C@H](Cc1ccc2ccccc2c1)NC(=O)CNC(=O)[C@@H](C)NC(=O)[C@@H](N)Cc1ccc(O)cc1` [Biphalin Analogue], 7.4 nM.
As for `C[C@@H](NC(=O)[C@@H](N)Cc1ccc(O)cc1)C(=O)NCC(=O)N[C@H](C(=O)NNC(=O)[C@@H](NC(=O)CNC(=O)[C@@H](C)NC(=O)[C@@H](N)Cc1ccc(O)cc1)[C@@H](C)c1ccccc1)[C@@H](C)c1ccccc1` [2-Amino-N-((S)-1-{[((S)-1-{N'-[(S)-2-(2-{(S)-2-[2-amino-3-(4-hydroxy-phenyl)-propionylamino]-propionylamino}-acetylamino)-3-phenyl-butyryl]-hydrazinocarbonyl}-2-phenyl-propylcarbamoyl)-methyl]-carbamoyl}-ethyl)-3-(4-hydroxy-phenyl)-propionamide], the figure is 11 nM; as for `C[C@@H](NC(=O)[C@@H](N)Cc1ccc(O)cc1)C(=O)NCC(=O)N[C@@H](Cc1cccc2ccccc12)C(=O)NNC(=O)[C@H](Cc1cccc2ccccc12)NC(=O)CNC(=O)[C@@H](C)NC(=O)[C@@H](N)Cc1ccc(O)cc1` [Biphalin Analogue], 6.4 nM.
